# Measurements published in patent US8946223B2, “Substituted hydroxamic acids and uses thereof” (Millennium Pharmaceuticals, Inc., priority 2010, dated 2015).
# Molecular target: T1, purified human HDAC6 (Homo sapiens, UniProt Q9UBN7)
# T1 construct: purchased BPS Bioscience 5006
# T1 sequence (Q9UBN7 1-1215): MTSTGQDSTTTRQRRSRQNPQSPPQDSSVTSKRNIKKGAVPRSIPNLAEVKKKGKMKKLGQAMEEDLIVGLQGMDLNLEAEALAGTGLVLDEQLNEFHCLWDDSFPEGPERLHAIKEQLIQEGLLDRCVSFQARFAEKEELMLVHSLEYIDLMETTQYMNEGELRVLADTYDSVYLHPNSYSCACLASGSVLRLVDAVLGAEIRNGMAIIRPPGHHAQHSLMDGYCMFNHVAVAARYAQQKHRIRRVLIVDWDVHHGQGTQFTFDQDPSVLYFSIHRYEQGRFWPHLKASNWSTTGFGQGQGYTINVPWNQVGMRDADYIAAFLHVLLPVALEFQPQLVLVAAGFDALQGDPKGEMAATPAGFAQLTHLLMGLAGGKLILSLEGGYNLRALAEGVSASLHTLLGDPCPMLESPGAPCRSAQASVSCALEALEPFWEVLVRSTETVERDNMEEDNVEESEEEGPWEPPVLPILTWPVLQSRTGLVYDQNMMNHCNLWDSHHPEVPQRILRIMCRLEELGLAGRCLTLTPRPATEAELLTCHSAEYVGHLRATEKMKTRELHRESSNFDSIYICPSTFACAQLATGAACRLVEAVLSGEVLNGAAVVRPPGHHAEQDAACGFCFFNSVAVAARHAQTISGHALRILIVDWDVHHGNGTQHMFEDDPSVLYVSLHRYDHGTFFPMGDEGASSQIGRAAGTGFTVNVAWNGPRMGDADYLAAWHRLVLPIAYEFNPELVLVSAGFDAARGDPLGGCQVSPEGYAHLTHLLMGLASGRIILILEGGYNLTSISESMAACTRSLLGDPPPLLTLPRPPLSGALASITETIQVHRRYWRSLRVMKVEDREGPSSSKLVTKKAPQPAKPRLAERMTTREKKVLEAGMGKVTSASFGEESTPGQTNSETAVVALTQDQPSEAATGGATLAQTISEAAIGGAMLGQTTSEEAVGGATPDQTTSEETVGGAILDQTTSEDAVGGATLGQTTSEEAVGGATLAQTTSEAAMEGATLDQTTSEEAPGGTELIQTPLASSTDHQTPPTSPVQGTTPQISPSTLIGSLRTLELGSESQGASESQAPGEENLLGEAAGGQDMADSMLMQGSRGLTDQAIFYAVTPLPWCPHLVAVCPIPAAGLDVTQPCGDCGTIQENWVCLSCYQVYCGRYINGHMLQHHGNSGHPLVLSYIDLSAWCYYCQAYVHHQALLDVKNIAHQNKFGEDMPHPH
# Experiment: HDAC6 enzyme assay
# Assay type: biochemical
# Conditions: bin: less than 100 nM
# Procedure: To measure the inhibition of HDAC6 activity, purified human HDAC6 (BPS Bioscience; Cat. No. 5006) is incubated with substrate Ac-Arg-Gly-Lys(Ac)-AMC peptide (Bachem Biosciences; Cat. No. I-1925) for 1 hour at 30° C. in the presence of test compounds or vehicle DMSO control. The reaction is stopped with the HDAC inhibitor trichostatin A (Sigma; Cat. No. T8552) and the amount of Arg-Gly-Lys-AMC generated is quantitated by digestion with trypsin (Sigma; Cat. No. T1426) and subsequent measurement of the amount of AMC released using a fluorescent plate reader (Pherastar; BMG Technologies) set at Ex 340 nm and Em 460 nm. Concentration response curves are generated by calculating the fluorescence increase in test compound-treated samples relative to DMSO-treated controls, and enzyme inhibition (IC50) values are determined from those curves.
row,IC50,Structure (SMILES)
1,< 100 nM,"Cc1c(C(=O)N2CCn3cc(C(=O)NO)cc3C2)cc(-c2ccccc2)n1-c1ccccc1 [Compound I-87, N-hydroxy-2-[(2-methyl-1,5-diphenyl-1H-pyrrol-3-yl)carbonyl]-1,2,3,4-tetrahydropyrrolo[1,2-a]pyrazine-7-carboxamide]"
2,< 100 nM,"Cc1c(C(=O)N2CCn3cc(C(=O)NO)cc3C2)cnn1-c1ccccc1 [Compound I-99, N-hydroxy-2-[(5-methyl-1-phenyl-1H-pyrazol-4-yl)carbonyl]-1,2,3,4-tetrahydropyrrolo[1,2-a]pyrazine-7-carboxamide]"
3,< 100 nM,"Cc1ccc2[nH]c(C(=O)N3CCn4cc(C(=O)NO)cc4C3)c(C)c2c1 [Compound I-28, 2-[(3,5-dimethyl-1H-indol-2-yl)carbonyl]-N-hydroxy-1,2,3,4-tetrahydropyrrolo[1,2-a]pyrazine-7-carboxamide]"
4,< 100 nM,"COc1ccc(C(=O)N2CCn3cc(C(=O)NO)cc3C2)cc1 [Compound I-68, N-hydroxy-2-(4-methoxybenzoyl)-1,2,3,4-tetrahydropyrrolo[1,2-a]pyrazine-7-carboxamide]"

# Same assay, conditions: bins: greater than 1 μM and less than 10 μM; greater than 10 μM
row,Structure (SMILES),IC50
1,"Cn1cccc1C(=O)N1CCCn2nc(C(=O)NO)cc2C1 [Compound I-71, N-hydroxy-5-[(1-methyl-1H-pyrrol-2-yl)carbonyl]-5,6,7,8-tetrahydro-4H-pyrazolo[1,5-a][1,4]diazepine-2-carboxamide]",> 10000 nM
2,"O=C(NO)c1cc2n(c1)CCN(C(=O)c1cn3ccccc3n1)C2 [Compound I-3, N-hydroxy-2-(imidazo[1,2-a]pyridin-2-ylcarbonyl)-1,2,3,4-tetrahydropyrrolo[1,2-a]pyrazine-7-carboxamide]",1000 to 10000 nM
3,"CCCCN1CCn2cc(C(=O)NO)cc2C1 [Compound I-86, 2-butyl-N-hydroxy-1,2,3,4-tetrahydropyrrolo[1,2-a]pyrazine-7-carboxamide]",> 10000 nM
4,"CC(C)(C)C(=O)N1CCn2cc(C(=O)NO)nc2C1 [Compound I-41, 7-(2,2-dimethylpropanoyl)-N-hydroxy-5,6,7,8-tetrahydroimidazo[1,2-a]pyrazine-2-carboxamide]",1000 to 10000 nM
5,"Cc1onc(-c2ccccc2)c1NC(=O)N1CCn2cc(C(=O)NO)nc2C1 [Compound I-122, N2-hydroxy-N7-(5-methyl-3-phenylisoxazol-4-yl)-5,6-dihydroimidazo[1,2-a]pyrazine-2,7(8H)-dicarboxamide]",1000 to 10000 nM
6,"O=C(NO)c1cc2n(n1)CCN(C(=O)CCc1ccccc1)C2 [Compound I-106, N-hydroxy-5-(3-phenylpropanoyl)-4,5,6,7-tetrahydropyrazolo[1,5-a]pyrazine-2-carboxamide]",1000 to 10000 nM

# Continued, values first:
row,IC50,Structure (SMILES)
1,1000 to 10000 nM,"Cc1c(C(=O)N2CCCn3cc(C(=O)NO)cc3C2)cnn1-c1ccccc1 [Compound I-7, N-hydroxy-2-[(5-methyl-1-phenyl-1H-pyrazol-4-yl)carbonyl]-2,3,4,5-tetrahydro-1H-pyrrolo[1,2-a][1,4]diazepine-8-carboxamide]"
2,1000 to 10000 nM,"Cn1c(C(=O)N2CCCn3cc(C(=O)NO)cc3C2)cc2oc(-c3ccc(C(F)(F)F)cc3)cc21 [Compound I-5, N-hydroxy-2-({4-methyl-2-[4-(trifluoromethyl)phenyl]-4H-furo[3,2-b]pyrrol-5-yl}carbonyl)-2,3,4,5-tetrahydro-1H-pyrrolo[1,2-a][1,4]diazepine-8-carboxamide]"
3,1000 to 10000 nM,"O=C(NO)c1cc2n(c1)CCN(C(=O)c1cnn(-c3ccccc3)c1C(F)(F)F)C2 [Compound I-64, N-hydroxy-2-{[1-phenyl-5-(trifluoromethyl)-1H-pyrazol-4-yl]carbonyl}-1,2,3,4-tetrahydropyrrolo[1,2-a]pyrazine-7-carboxamide]"
4,1000 to 10000 nM,"O=C(NO)c1cc2n(c1)CCCN(C(=O)c1ccc(Cl)cc1)C2 [Compound I-56, 2-(4-chlorobenzoyl)-N-hydroxy-2,3,4,5-tetrahydro-1H-pyrrolo[1,2-a][1,4]diazepine-8-carboxamide]"
5,1000 to 10000 nM,"O=C(NO)c1cn2c(n1)CN(C(=O)NCc1ccccc1)CC2 [Compound I-123, N7-benzyl-N2-hydroxy-5,6-dihydroimidazo[1,2-a]pyrazine-2,7(8H)-dicarboxamide]"
6,1000 to 10000 nM,"Cc1c(C(=O)N2CCCn3nc(C(=O)NO)cc3C2)oc2ccccc12 [Compound I-108, N-hydroxy-5-[(3-methyl-1-benzofuran-2-yl)carbonyl]-5,6,7,8-tetrahydro-4H-pyrazolo[1,5-a][1,4]diazepine-2-carboxamide]"
7,1000 to 10000 nM,"Cc1nc(C(=O)N2CCn3cc(C(=O)NO)nc3C2)cs1 [Compound I-55, N-hydroxy-7-[(2-methyl-1,3-thiazol-4-yl)carbonyl]-5,6,7,8-tetrahydroimidazo[1,2-a]pyrazine-2-carboxamide]"
8,1000 to 10000 nM,"O=C(NO)c1cc2n(n1)CCN(CCCn1cccc1)C2=O [Compound I-109, N-hydroxy-4-oxo-5-[3-(1H-pyrrol-1-yl)propyl]-4,5,6,7-tetrahydropyrazolo[1,5-a]pyrazine-2-carboxamide]"
